According to BindingDB's records for PubMed 36250680 (University of Pisa, 2022):

Target: Macrophage metalloelastase (Homo sapiens, UniProt P39900)
Experiment: Inhibition of MMP12 (unknown origin)

Sequence of Macrophage metalloelastase (P39900 whole entry): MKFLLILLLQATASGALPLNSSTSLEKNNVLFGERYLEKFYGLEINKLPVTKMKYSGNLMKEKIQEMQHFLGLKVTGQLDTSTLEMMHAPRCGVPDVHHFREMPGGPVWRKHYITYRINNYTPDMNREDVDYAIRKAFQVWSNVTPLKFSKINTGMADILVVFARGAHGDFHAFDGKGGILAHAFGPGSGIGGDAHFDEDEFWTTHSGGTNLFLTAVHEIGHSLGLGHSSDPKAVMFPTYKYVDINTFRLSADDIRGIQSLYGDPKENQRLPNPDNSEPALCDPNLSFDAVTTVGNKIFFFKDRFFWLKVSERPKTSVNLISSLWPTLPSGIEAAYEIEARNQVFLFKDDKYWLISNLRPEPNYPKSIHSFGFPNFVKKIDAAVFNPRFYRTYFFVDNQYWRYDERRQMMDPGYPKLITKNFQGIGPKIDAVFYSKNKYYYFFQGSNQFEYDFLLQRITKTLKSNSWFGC

Ki: 2030 nM
Compound: Oc1cccc(O)c1O
